Source: patent US11111251B2, “Positive allosteric modulators of the muscarinic acetylcholine receptor M1” (Vanderbilt University, priority 2016, dated 2021)
Read-outs that look alike come from different tables or passages of the source.

Target: T1, human mAChR M1 (Homo sapiens, UniProt P11229)
T1 sequence (P11229 1-460): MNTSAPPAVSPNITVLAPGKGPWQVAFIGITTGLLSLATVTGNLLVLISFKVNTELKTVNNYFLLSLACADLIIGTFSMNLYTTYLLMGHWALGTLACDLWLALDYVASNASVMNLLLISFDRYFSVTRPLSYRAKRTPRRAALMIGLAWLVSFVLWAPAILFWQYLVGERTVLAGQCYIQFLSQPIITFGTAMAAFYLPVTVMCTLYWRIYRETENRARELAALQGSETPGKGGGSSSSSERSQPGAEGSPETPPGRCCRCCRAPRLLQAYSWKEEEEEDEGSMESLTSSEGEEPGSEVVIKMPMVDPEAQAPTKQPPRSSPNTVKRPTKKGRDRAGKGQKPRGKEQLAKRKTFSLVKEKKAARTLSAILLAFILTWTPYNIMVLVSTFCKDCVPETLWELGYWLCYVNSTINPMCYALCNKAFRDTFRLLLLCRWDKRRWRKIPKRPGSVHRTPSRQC
Experiment: mAChR M1 cell-based functional assay: calcium mobilization, positive allosteric modulator mode (increase in EC20 acetylcholine response)
Conditions: for EC50: read-out: Human M1 EC50; for Emax: read-out: Human M1 Emax (%)
Method in brief: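 PAM potency reflects the concentration-dependent increase in calcium response to an EC20 acetylcholine challenge, given 144 s into a 300 s read after compound addition at 4 s (EC80 follows at 230 s). Cells were hM1-expressing CHO-K1, loaded 50 min with Fluo-4 AM. Curves used 11 points at 1:3 dilutions and four-parameter logistic fitting.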

EC50 (Table 2, human M1) [nM]	Emax (Table 2, human M1) [%]	SMILES	Emax [%]
12.2	84.9	O=C(N[C@@H]1CCOC[C@H]1O)c1cc(Cc2ccc(-n3cccn3)cc2)c2sccc2n1 [Compound 74, N-[(3S,4R)-3-hydroxytetrahydropyran-4-yl]-7-[(4-pyrazol-1-ylphenyl)methyl]thieno[3,2-b]pyridine-5-carboxamide]	–
22.1	90.1	O=C(N[C@@H]1COCC[C@H]1O)c1cc(Cc2ccc(-n3cccn3)cc2)c2sccc2n1 [Compound 75, N-[(3R,4R)-4-hydroxytetrahydropyran-3-yl]-7-[(4-pyrazol-1-ylphenyl)methyl]thieno[3,2-b]pyridine-5-carboxamide]	–
739	67.6	CO[C@@H]1CCCC[C@H]1NC(=O)c1cc(Cc2ccc(-n3cccn3)cc2)c2sccc2n1 [Compound 76, N-[(1R,2R)-2-methoxycyclohexyl]-7-[(4-pyrazol-1-ylphenyl)methyl]thieno[3,2-b]pyridine-5-carboxamide]	–
136	84.8	O=C(N[C@@H]1CCCCC[C@H]1O)c1cc(Cc2ccc(-n3cccn3)cc2)c2sccc2n1 [Compound 77, N-[(1R,2R)-2-hydroxycycloheptyl]-7-[(4-pyrazol-1-ylphenyl)methyl]thieno[3,2-b]pyridine-5-carboxamide]	–
310	87.2	O=C(NC1CCCNC1=O)c1cc(Cc2ccc(-n3cccn3)cc2)c2sccc2n1 (stereo not drawn) [Compound 78, N-(2-oxo-3-piperidyl)-7-[(4-pyrazol-1-ylphenyl)methyl]thieno[3,2-b]pyridine-5-carboxamide]	–
397	70.5	O=C(NC1CCCCNC1=O)c1cc(Cc2ccc(-n3cccn3)cc2)c2sccc2n1 (stereo not drawn) [Compound 79, N-(2-oxoazepan-3-yl)-7-[(4-pyrazol-1-ylphenyl)methyl]thieno[3,2-b]pyridine-5-carboxamide]	–
> 10000	33	O=C(c1cc(Cc2ccc(-n3cccn3)cc2)c2sccc2n1)N1CCC[C@@H](O)C1 [Compound 81, [(3R)-3-hydroxy-1-piperidyl]-[7-[(4-pyrazol-1-ylphenyl)methyl]thieno[3,2-b]pyridin-5-yl]methanone]	–
> 10000	70.4	CC1(O)CCN(C(=O)c2cc(Cc3ccc(-n4cccn4)cc3)c3sccc3n2)CC1 [Compound 82, (4-hydroxy-4-methyl-1-piperidyl)-[7-[(4-pyrazol-1-ylphenyl)methyl]thieno[3,2-b]pyridin-5-yl]methanone]	–
> 10000	52.9	O=C(c1cc(Cc2ccc(-n3cccn3)cc2)c2sccc2n1)N1CCNCC1 [Compound 83, piperazin-1-yl-[7-[(4-pyrazol-1-ylphenyl)methyl]thieno[3,2-b]pyridin-5-yl]methanone]	–
> 10000	24.4	O=C(c1cc(Cc2ccc(-n3cccn3)cc2)c2sccc2n1)N1CCN(CCO)CC1 [Compound 84, [4-(2-hydroxyethyl)piperazin-1-yl]-[7-[(4-pyrazol-1-ylphenyl)methyl]thieno[3,2-b]pyridin-5-yl]methanone]	–
80.1	87.9	Cc1ccc(C(F)c2cc(C(=O)N[C@@H]3CCCC[C@H]3O)nc3ccsc23)cn1 (stereo partly drawn) [Compound 85, 7-[fluoro-(6-methyl-3-pyridyl)methyl]-N-[(1R,2R)-2-hydroxycyclohexyl]thieno[3,2-b]pyridine-5-carboxamide]	–
255	87.7	CCOC(c1ccc(C)nc1)c1cc(C(=O)N[C@@H]2CCCC[C@H]2O)nc2ccsc12 (stereo partly drawn) [Compound 86, 7-[ethoxy-(6-methyl-3-pyridyl)methyl]-N-[(1R,2R)-2-hydroxycyclohexyl]thieno[3,2-b]pyridine-5-carboxamide]	–
3130	84.9	O=C(N[C@H]1CC[C@@H]1O)c1cc(Cc2ccc(C(F)(F)F)nc2)c2sccc2n1 [Compound 87, N-[(1S,2S)-2-hydroxycyclobutyl]-7-[[6-(trifluoromethyl)-3-pyridyl]methyl]thieno[3,2-b]pyridine-5-carboxamide]	–
503	90.5	O=C(N[C@@H]1CCC[C@H]1O)c1cc(Cc2ccc(C(F)(F)F)nc2)c2sccc2n1 [Compound 88, N-[(1R,2R)-2-hydroxycyclopentyl]-7-[[6-(trifluoromethyl)-3-pyridyl]methyl]thieno[3,2-b]pyridine-5-carboxamide]	–
1730	71.8	O=C(NC1CCOCC1)c1cc(Cc2ccc(C(F)(F)F)nc2)c2sccc2n1 [Compound 89, N-tetrahydropyran-4-yl-7-[[6-(trifluoromethyl)-3-pyridyl]methyl]thieno[3,2-b]pyridine-5-carboxamide]	–
154	90.7	O=C(N[C@@H]1CCCC[C@H]1O)c1cc(Cc2ccc(C(F)(F)F)nc2)c2sccc2n1 [Compound 90, N-[(1R,2R)-2-hydroxycyclohexyl]-7-[[6-(trifluoromethyl)-3-pyridyl]methyl]thieno[3,2-b]pyridine-5-carboxamide]	–
73.8	87.9	O=C(N[C@@H]1CCOC[C@H]1O)c1cc(Cc2ccc(C(F)(F)F)nc2)c2sccc2n1 [Compound 91, N-[(3S,4R)-3-hydroxytetrahydropyran-4-yl]-7-[[6-(trifluoromethyl)-3-pyridyl]methyl]thieno[3,2-b]pyridine-5-carboxamide]	–
> 10000	66.8	O=C(N[C@@H]1COCC[C@H]1O)c1cc(Cc2ccc(C(F)(F)F)nc2)c2sccc2n1 [Compound 92, N-[(3R,4R)-4-hydroxytetrahydropyran-3-yl]-7-[[6-(trifluoromethyl)-3-pyridyl]methyl]thieno[3,2-b]pyridine-5-carboxamide]	–
6720	70.3	CO[C@@H]1CCCC[C@H]1NC(=O)c1cc(Cc2ccc(C(F)(F)F)nc2)c2sccc2n1 [Compound 93, N-[(1R,2R)-2-methoxycyclohexyl]-7-[[6-(trifluoromethyl)-3-pyridyl]methyl]thieno[3,2-b]pyridine-5-carboxamide]	–
1250	84.6	O=C(N[C@@H]1CCCCC[C@H]1O)c1cc(Cc2ccc(C(F)(F)F)nc2)c2sccc2n1 [Compound 94]	–
3130	34.2	O=C(NC12CC3CC(CC(O)(C3)C1)C2)c1cc(Cc2ccc(C(F)(F)F)nc2)c2sccc2n1 [Compound 95, N-(3-hydroxy-1-adamantyl)-7-[[6-(trifluoromethyl)-3-pyridyl]methyl]thieno[3,2-b]pyridine-5-carboxamide]	–
> 10000	43.6	O=C(NC1C2CC3C[C@H]1CC(O)(C3)C2)c1cc(Cc2ccc(C(F)(F)F)nc2)c2sccc2n1 (stereo partly drawn) [Compound 96, N-[(1S)-5-hydroxy-2-adamantyl]-7-[[6-(trifluoromethyl)-3-pyridyl]methyl]thieno[3,2-b]pyridine-5-carboxamide]	–
> 10000	75.2	O=C(NC1CCCNC1=O)c1cc(Cc2ccc(C(F)(F)F)nc2)c2sccc2n1 (stereo not drawn) [Compound 97, N-(2-oxo-3-piperidyl)-7-[[6-(trifluoromethyl)-3-pyridyl]methyl]thieno[3,2-b]pyridine-5-carboxamide]	–

SMILES	EC50 (Table 2, human M1) [nM]	Emax (Table 2, human M1) [%]	Emax [%]
O=C(c1cc(Cc2ccc(-n3cccn3)cc2)c2sccc2n1)N1[C@@H]2CC[C@H]1CC(O)C2 (stereo partly drawn) [Compound 80, [(1S,5R)-3-hydroxy-8-azabicyclop[3.2.1]octan-8-yl]-[7-[(4-pyrazol-1-ylphenyl)methyl]thieno[3,2-b]pyridin-5-yl]methanone]	> 10000	–	65.9
